Source: ChEMBL document CHEMBL1671736, “In vivo efficacy of anidulafungin against mature Candida albicans biofilms in a novel rat model of catheter-associated Candidiasis” (2010)
≈ marks a conversion by molar mass, not a printed value. Calls of active or inactive are those of the source. The calls are words filed in the database; no cut-off is given here. *1 amine or outer side, *2 acyl side, *3 side chain or, on linkers, in order; H or OH if unused. Where a SMILES comes first, the peptide text is derived from it. Bridges are numbered along the chain shown (N, C = ends). [ ]: non-standard residue; d: D form. The star is where a group is joined. pTerphenylCO(4''-OnC5H11) = CCCCCOc1ccc(-c2ccc(-c3ccc(C(=O)*)cc3)cc2)cc1; Orn(4R-OH,5R-OH) = O=C([C@H](C[C@@H](O)[C@@H](O)N[*:3])N[*:1])[*:2]; hTyr(3S-OH,4S-OH) = N[C@H](C(=O)O)[C@H](O)[C@@H](O)c1ccc(O)cc1; Pro(3S-OH,4S-Me) = C[C@H]1CN[C@H](C(=O)O)[C@H]1O; Hyp = O=C(O)[C@@H]1C[C@@H](O)CN1

Assays:
Candida albicans [1] = test: Antimicrobial activity against Candida albicans SC5314 biofilms infected in Sprague-Dawley rat implanted subcutaneously with catheter fragments challenged Candida cells assessed as […] at 10 mg/kg, ip qd for 7 days (Rvb=2.92 +/- 0.34 log10 CFU/catheter fragment); format: functional
Candida albicans [2] = test: Antimicrobial activity against Candida albicans SC5314 assessed as reduction of biofilm metabolic activity in in vitro catheter-associated rat model by XTT assay; format: functional
Candida albicans [3] = test: Antimicrobial activity against Candida albicans SC5314 assessed as reduction of biofilm metabolic activity in in vitro catheter-associated rat model at 64 ug/ml by XTT assay; format: functional, organism-based
Candida albicans [4] = test: Antimicrobial activity against Candida albicans SC5314 biofilms infected in Sprague-Dawley rat implanted subcutaneously with catheter fragments challenged Candida cells assessed as […] at 125 mg/kg, ip qd for 7 days (Rvb=2.92 +/- 0.34 log10 CFU/catheter fragment); format: functional

Row | SMILES | log10cfu (Candida albicans [1]) | MIC (Candida albicans [2]) | Activity (Candida albicans [3]) | log10cfu (Candida albicans [4])
1 | CCCCCOc1ccc(-c2ccc(-c3ccc(C(=O)N[C@H]4C[C@@H](O)[C@@H](O)NC(=O)[C@@H]5[C@@H](O)[C@@H](C)CN5C(=O)[C@H]([C@@H](C)O)NC(=O)[C@H]([C@H](O)[C@@H](O)c5ccc(O)cc5)NC(=O)[C@@H]5C[C@@H](O)CN5C(=O)[C@H]([C@@H](C)O)NC4=O)cc3)cc2)cc1 [ANIDULAFUNGIN] ({pTerphenylCO(4''-OnC5H11)}-[Orn(4R-OH,5R-OH)]T[Hyp][hTyr(3S-OH,4S-OH)]T[Pro(3S-OH,4S-Me)]; lactam 1-C) | 2.14 | 0.25 mg/L (≈ 0.219 µM) |  | 
2 | OC(Cn1cncn1)(Cn1cncn1)c1ccc(F)cc1F [FLUCONAZOLE] |  |  | inactive | 3.01
